Experimental data published in paper PMC8005870, “Membrane Lipid Requirements of the Lysine Transporter Lyp1 from Saccharomyces cerevisiae” (Journal of molecular biology, 2020).

Target: T1, Lyp1 (Lyp1-GFP) (Saccharomyces cerevisiae, UniProt P32487)
T1 construct: full-length Lyp1 with C-terminal TEV-GFP-His10 kept, expressed in Pichia pastoris SMD1163, DDM-solubilised, purified by IMAC and FSEC, reconstituted in proteoliposomes
T1 sequence (P32487 1-611): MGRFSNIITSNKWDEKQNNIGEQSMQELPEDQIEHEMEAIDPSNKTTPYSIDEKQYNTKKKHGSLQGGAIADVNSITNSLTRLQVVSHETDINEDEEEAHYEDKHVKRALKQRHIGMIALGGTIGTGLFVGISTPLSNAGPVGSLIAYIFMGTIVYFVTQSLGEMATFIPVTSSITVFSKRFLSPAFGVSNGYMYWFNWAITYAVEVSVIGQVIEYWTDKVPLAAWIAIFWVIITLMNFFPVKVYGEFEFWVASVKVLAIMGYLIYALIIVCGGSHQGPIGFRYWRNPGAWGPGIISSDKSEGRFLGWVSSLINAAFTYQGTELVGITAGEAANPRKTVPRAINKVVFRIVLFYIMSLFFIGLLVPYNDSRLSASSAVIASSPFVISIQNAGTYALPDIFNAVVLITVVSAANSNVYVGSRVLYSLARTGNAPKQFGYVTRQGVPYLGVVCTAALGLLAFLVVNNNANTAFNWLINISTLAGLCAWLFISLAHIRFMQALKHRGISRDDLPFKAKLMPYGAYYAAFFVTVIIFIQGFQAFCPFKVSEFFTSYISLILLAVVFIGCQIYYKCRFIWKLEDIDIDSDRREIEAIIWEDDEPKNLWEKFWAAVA
Assay: lysine transport turnover versus mol% lipid in proteoliposomes
Format: biochemical
Conditions: proton motive force about -160 mV (valinomycin K+ diffusion potential plus acetate gradient), pH 6.0; defined lipid vesicles; POPS titrated in POPS/POPE/ergosterol vesicles; sigmoidal, cooperative lip

## CCCCCCCC/C=C\CCCCCCCC(=O)O[C@H](COC(=O)CCCCCCCCCCCCCCC)COP(=O)(O)OC[C@H](N)C(=O)O [POPS, 1-palmitoyl-2-oleoyl-sn-glycero-3-phosphoserine]
  lysine transport turnover versus mol% lipid in proteoliposomes: We found a sigmoidal relationship between Lyp1 activity and POPS concentration
